The numbers were not newly measured in patent publication US20090005297A1 (priority 2004, published 2009), which cites them from elsewhere.

For this data set the following is noted: nonspecific PEGylation at amine groups with one or two 5 kDa PEG.

For the substance “variant aprotinin (T11 D, K15R, R17L, I18H, I19L, V34Y, R39L, K46E): variant aprotinin nonspecifically PEGylated at amine groups with one or two 5 kDa PEG (Stassen 1995)”, the in vivo effectiveness result was “not improved”.
